{
  "source": "patent US9238684B2",
  "about": "“SPANX-B polypeptides and their use” (The United States of America, as represented by the …, priority 2009, dated 2016)",
  "key": {"SPANX-B": {"test_system": "SPANX-B", "assay": "DNA immunization of mice, serum ELISA on peptide-coated plates", "type": "in vivo", "settings": "plates coated with peptide 5 μg/ml; FIG. 7", "experimental": "Mice were intradermally immunized twice with 25 μg plasmid DNA constructs including MIP-3α-SPANX-B. Sera were tested for SPANX-B antibodies by ELISA assay in 96-well plates coated with the indicated peptides (5 μg/ml). […] The other was near the N-terminus, encoded by Pep-G1 (SEQ ID NO: 14) and Pep-2 (SEQ ID NO: 2) and Pep-3 (SEQ ID NO: 3)."}, "[1]": {"test_system": "SPANX-B-specific CD8^+ T cell lines", "assay": "IFNγ secretion (ELISA) by CD8+ T cell lines stimulated with antigen-pulsed autologous DCs", "type": "cell-based, human"}, "OVCAR3 cells": {"test_system": "OVCAR3 cells", "assay": "CTL 51Cr release assay on OVCAR3", "type": "cell-based, human", "settings": "HLA-A2-positive, SPANX-B-negative target; FIG. 6D", "experimental": "(§1) CTL assay and HLA blocking experiments: Tumor cell lines (target cells, 2×10^6) were incubated in 200 μL of fetal bovine serum (FBS) with 200 μCi of Na2^51CrO4 (PerkinElmer, Billerica, Mass.) for 2 hours at 37° C. Cells were washed with RPMI three times and resuspended in cRPMI with 10% FBS at 1×10^5 cells/mL. CTL assay was performed in triplicate in 96-well round bottom plates with 1×10^4/well ^51Cr-labeled target cells. The target cells were co-cultured at indicated ratios with effector cells (peptide-specific CD8^+ T cells) for 6 hours. The specific ^51Cr-release is calculated using formula: ((test sample release−spontaneous release)/(maximum release−spontaneous release))×100). Maximum release is for the target cells alone lysed with 2% Triton X-100."}, "HEK293 cells": {"test_system": "HEK293 cells", "assay": "CTL 51Cr release assay on HEK293 cells pulsed with Pep-2", "type": "cell-based, human", "settings": "FIGS. 6A-C", "experimental": "as §1"}, "UACC1273 melanoma cells": {"test_system": "UACC1273 melanoma cells", "assay": "CTL 6-hour 51Cr release assay on UACC1273", "type": "cell-based, human", "settings": "SPANX-B-expressing, HLA-A2-positive target; FIGS. 6A-C", "experimental": "as §1"}, "[2]": {"test_system": "murine anti-SPANX-B antibody", "assay": "ELISA on peptide-coated plates with murine anti-SPANX-B antibody", "type": "binding", "settings": "Ab from mice DNA immunized with SPANX-B-expressing plasmid; FIG. 1B", "experimental": "FIGS. 1A-1F are digital images, a graph and a schematic diagram illustrating the specificity of antibody and expression of SPANX-B in human immortalized tumor cell lines. FIG. 1A is a digital image showing ANEA-I0117 antibody recognized SPANX-B expressed in mouse erythroleukemia RL5 cells. Western blotting results are shown with ANEA-I0117 anti-SPANX-B antibody on lysates of RL5 cells (2 μl, 5 μl and 10 μl, respectively) transiently transduced with plasmid expressing SPANX-B (SPANX-B). Control lysates were made from untransduced parental RL5 cells (Control). FIG. 1B is a graph showing murine anti-SPANX-B antibody, which was generated from mice DNA immunized with plasmid expressing SPANX-B, recognized unique SPANX-B-specific insert of SPANX-B (encoded in Pep-G1 and Pep-2 peptides), ELISA assay on plates coated with various peptides that are depicted in FIG. 1C. […] FIG. 1D is a digital image showing the expression of SPANX-B protein evaluated by Western blotting with ANEA-I0117 Ab (1:5000) in lysates of cell lines, such as HEK293 (HEK), Jurkat, CRL 7002, UACC1273, 938 Mel, CCRF-CEM (CEM), and normal human donor PBMC (upper panel). The blot was stripped and hybridized with anti-actin antibody (lower panel). FIGS. 1E and 1F are digital images obtained from an immunohistochemistry and immunofluorescent assay, respectively, of melanoma (UACC1273) and ovarian carcinoma (2008 and OVCAR3) cell lines. The cells were stained with ANEA-I0117 Ab (right and bottom panels in FIG. 1E and FIG. 1F, respectively); and control IgG (left and upper panels in FIG. 1E and FIG. 1F, respectively).\nSPANX-B can be often found in the list of highly expressed genes in microarray study of human tumors, including hematological malignancies and breast cancer (see, for example, Minn et al., Nature 436(7050):518-24, 2005). To confirm this, expression was tested using two antibodies, a rabbit 3ANEA Ab and mouse SPANX-B Ab. […] The second SPANX-B Ab was produced from mice DNA immunized with SPANX-B-expressing plasmid. […] In contrast, it reacted with a second peptide Pep-2 that only represented unique for SPANX-B insert of Pep-G1 (FIGS. 1B and C)."}, "[3]": {"test_system": "primary human melanoma cells", "assay": "CTL 51Cr release assay on primary human melanoma cells", "type": "cell-based", "experimental": "as §1"}},
  "note": "Entries after “also recorded” stand apart in the source; their conditions may differ.",
  "data": [
    {"sequence": "EANEANKTM (Synthetic peptide Pep-2)", "values": [
      {"measurement": "B cell epitope recognized by sera of immunized mice (ELISA)", "setting": "SPANX-B", "value": "Immunodominant B cell epitopes"},
      {"measurement": "recognition of SPANX-B protein-pretreated DCs by CD8+ T cells generated with peptide-pulsed DCs", "setting": "[1]", "value": "also recognized SPANX-B protein-pretreated DCs"},
      {"measurement": "IFNγ secretion by SPANX-B-specific CD8+ T cells on stimulation with pulsed DCs", "setting": "[1]; irradiated autologous DCs, lines generated with SPANX-B protein, FIG. 5A", "value": "secreted IFNγ"},
      {"measurement": "lysis of OVCAR3 cells by CD8+ T cells, with or without Pep-2 pulsing", "setting": "OVCAR3 cells", "value": "could not lyse HLA-A2-positive OVCAR3 cells that did not express SPANX-B, unless pulsed with Pep-2"},
      {"measurement": "lysis of HLA-A2-expressing HEK293 cells pulsed with Pep-2 by CD8+ T cell lines generated to the antigen", "setting": "HEK293 cells; HEK-A2, pulsed with 1 μg/ml Pep-2", "value": "lysed HLA-A2-expressing HEK293 cells that were pulsed with Pep-2"},
      {"measurement": "lysis of HLA-A2-negative parental HEK293 cells by CD8+ T cell lines generated to the antigen", "setting": "HEK293 cells; HEK", "value": "did not kill"},
      {"measurement": "lysis of UACC1273 melanoma cells by CD8+ T cell lines generated to the antigen", "setting": "UACC1273 melanoma cells", "value": "killed UACC1273 melanoma cells"},
      {"measurement": "recognition of peptide by mouse SPANX-B Ab (ELISA)", "setting": "[2]", "value": "but not other region-specific peptides; also recorded: reacted with"},
      {"measurement": "lysis of HLA-A2-expressing primary melanoma tumors by CD8+ lines generated to the antigen", "setting": "[3]; Tc526, Tc624 and Tc2492", "value": "recognized and lysed"},
      {"measurement": "lysis of HLA-A2-negative primary melanoma tumors by CD8+ lines generated to the antigen", "setting": "[3]; Tc2547 and Tc938, FIG. 6E", "value": "not affected"}
    ]}
  ]
}
